“And” between values parts separate entries of the source, which are not always exact repeats. Equal entries are not always repeated. Inconclusive results and toxic doses are left out. The calls were made as follows: active = survival T/C of 150% or more; inactive = T/C below 125% in these data.
Test system: BDF1 mice, P388 leukemia ip, median survival T/C
Experiment: NCI In Vivo Anticancer Drug Screen. Data for tumor model P388 Leukemia (intraperitoneal) in B6D2F1 (BDF1) mice
Conditions: endpoint: median survival time, higher = longer survival
Summary of the method: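 Transplantable tumour in mice; compound vs vehicle dosing; survival scored; ratio of treated to control reported.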

[1] = dose: 100.0 mg/kg/injection, schedule: Q04DX003 (ip), vehicle: saline
[2] = dose: 200.0 mg/kg/injection, schedule: Q04DX003 (ip), vehicle: saline
[3] = dose: 400.0 mg/kg/injection, schedule: Q04DX003 (ip), vehicle: saline
[4] = dose: 25.0 mg/kg/injection, schedule: Q01DX009 (ip), vehicle: saline
[5] = dose: 50.0 mg/kg/injection, schedule: Q01DX009 (ip), vehicle: saline
[6] = dose: 100.0 mg/kg/injection, schedule: Q01DX009 (ip), vehicle: saline
[7] = dose: 200.0 mg/kg/injection, schedule: Q01DX009 (ip), vehicle: saline
[8] = dose: 400.0 mg/kg/injection, schedule: Q01DX009 (ip), vehicle: saline
[9] = dose: 50.0 mg/kg/injection, schedule: Q01DX005 (ip), vehicle: saline with Tween-80
[10] = dose: 100.0 mg/kg/injection, schedule: Q01DX005 (ip), vehicle: saline with Tween-80
[11] = dose: 100.0 mg/kg/injection, schedule: Q01DX009 (ip), vehicle: saline with Tween-80
[12] = dose: 100.0 mg/kg/injection, schedule: Q04DX003 (ip), vehicle: saline with Tween-80
[13] = dose: 200.0 mg/kg/injection, schedule: Q04DX003 (ip), vehicle: saline with Tween-80
[14] = dose: 400.0 mg/kg/injection, schedule: Q04DX003 (ip), vehicle: saline with Tween-80
[15] = dose: 100.0 mg/kg/injection, schedule: Q04DX003 (ip), vehicle: saline sonified
[16] = dose: 200.0 mg/kg/injection, schedule: Q04DX003 (ip), vehicle: saline sonified

Measured: T/C

N#CC(Nc1ccccc1C(N)=O)c1ccccc1 (stereo not given)
inactive: [1] 109 % of control | [2] 104 % of control | [3] 95 % of control

CC(=N\O)/C(C)=N/O.CC(=N\O)/C(C)=N/O.[Cl][Rh][Cl]
inactive: [4] 94 % of control | [5] 119 % of control | [6] 95 % of control and 119 % of control | [7] 100 % of control

COc1ccc(/C=C/C(=O)c2ccc(OC)c(OC)c2)cc1O
inactive: [4] 108 % of control | [5] 101 % of control | dose: 50.0 mg/kg/injection, schedule: Q04DX003 (ip), vehicle: saline 107 % of control | [6] 106 % of control | [1] 110 % of control | [7] 90 % of control | [2] 107 % of control | [8] 99 % of control | [3] 124 % of control

COC(=O)c1cc(=O)nc(NN=C(C)C)s1
inactive: [9] 91 % of control | [10] 100 % of control

COc1c(I)cc(/C=C(\C)[N+](=O)[O-])cc1I
inactive: dose: 50.0 mg/kg/injection, schedule: Q01DX009 (ip), vehicle: saline with Tween-80 110 % of control | [11] 112 % of control

O=C(Nc1ccccc1C(F)(F)F)Oc1ccc(Cl)cc1Cl
inactive: [12] 122 % of control | [13] 109 % of control | [14] 118 % of control

O=C(O)c1ccccc1C(=O)NNC(=O)c1ccccc1C(=O)O
inactive: [11] 100 % of control | [12] 90 % of control | dose: 200.0 mg/kg/injection, schedule: Q01DX009 (ip), vehicle: saline with Tween-80 95 % of control | [13] 113 % of control | dose: 400.0 mg/kg/injection, schedule: Q01DX009 (ip), vehicle: saline with Tween-80 90 % of control | [14] 109 % of control

O=C(S)c1ccccc1Br
inactive: [9] 99 % of control | [10] 92 % of control | dose: 200.0 mg/kg/injection, schedule: Q01DX005 (ip), vehicle: saline with Tween-80 100 % of control

CCOC(=O)CC/C(=C/c1ccccc1)[N+](=O)[O-]
inactive: dose: 25.0 mg/kg/injection, schedule: Q04DX003 (ip), vehicle: saline with Tween-80 110 % of control | dose: 50.0 mg/kg/injection, schedule: Q04DX003 (ip), vehicle: saline with Tween-80 106 % of control | [12] 119 % of control

Cn1ccc(=O)c2cc([N+](=O)[O-])ccc21
inactive: dose: 12.5 mg/kg/injection, schedule: Q01DX009 (ip), vehicle: water 94 % of control | dose: 25.0 mg/kg/injection, schedule: Q01DX009 (ip), vehicle: water 111 % of control | dose: 25.0 mg/kg/injection, schedule: Q04DX003 (ip), vehicle: water 102 % of control | dose: 50.0 mg/kg/injection, schedule: Q01DX009 (ip), vehicle: water 93 % of control | dose: 50.0 mg/kg/injection, schedule: Q04DX003 (ip), vehicle: water 100 % of control | dose: 100.0 mg/kg/injection, schedule: Q01DX009 (ip), vehicle: water 94 % of control | dose: 100.0 mg/kg/injection, schedule: Q04DX003 (ip), vehicle: water 109 % of control | dose: 200.0 mg/kg/injection, schedule: Q01DX009 (ip), vehicle: water 93 % of control | dose: 200.0 mg/kg/injection, schedule: Q04DX003 (ip), vehicle: water 92 % of control | dose: 300.0 mg/kg/injection, schedule: Q01DX009 (ip), vehicle: water 113 % of control

CCCC(Sc1nc(N)nc2nc[nH]c12)C(=O)O (stereo not given)
inactive: dose: 100.0 mg/kg/injection, schedule: Q01DX009 (ip), vehicle: saline sonified 115 % of control | [15] 109 % of control | [16] 118 % of control | dose: 400.0 mg/kg/injection, schedule: Q01DX009 (ip), vehicle: saline sonified 100 % of control | dose: 400.0 mg/kg/injection, schedule: Q04DX003 (ip), vehicle: saline sonified 109 % of control

CC(=O)c1c(C)cc(C(C)(C)C)cc1C
inactive: [6] 109 % of control | [7] 100 % of control | [8] 109 % of control

Cc1ccccc1C(=O)NCC(=O)O
inactive: [12] 104 % of control | [13] 100 % of control | [14] 100 % of control

Clc1ccc2c(c1)Nc1cc(Cl)ccc1C=C2
inactive: dose: 75.0 mg/kg/injection, schedule: Q01DX001 (ip), vehicle: saline with Tween-80 91 % of control | dose: 150.0 mg/kg/injection, schedule: Q01DX001 (ip), vehicle: saline with Tween-80 100 % of control | dose: 300.0 mg/kg/injection, schedule: Q01DX001 (ip), vehicle: saline with Tween-80 100 % of control

O=C(COc1cc(Cl)c(Cl)cc1Cl)OCCOc1cc(Cl)c(Cl)cc1Cl
inactive: dose: 3.13 mg/kg/injection, schedule: Q01DX009 (ip), vehicle: saline with Tween-80 91 % of control | dose: 3.13 mg/kg/injection, schedule: Q04DX003 (ip), vehicle: saline with Tween-80 100 % of control | dose: 6.25 mg/kg/injection, schedule: Q04DX003 (ip), vehicle: saline with Tween-80 95 % of control | dose: 12.5 mg/kg/injection, schedule: Q04DX003 (ip), vehicle: saline with Tween-80 100 % of control

O=S(=O)(O)c1ccc(Nc2ccccc2)cc1
inactive: dose: 100.0 mg/kg/injection, schedule: Q01DX009 (ip), vehicle: Klucel (hydroxypropylcellulose) (HPC) 100 % of control | dose: 400.0 mg/kg/injection, schedule: Q01DX009 (ip), vehicle: Klucel (hydroxypropylcellulose) (HPC) 104 % of control

NC(=O)NOCC(N)C(=O)O (stereo not given)
inactive: [1] 104 % of control | [2] 100 % of control | [3] 104 % of control

COc1cc2c(c(OC)c1OC)-c1ccc(N)c(=O)cc1[C@@H](NC(C)=O)CC2
inactive: dose: 0.5 mg/kg/injection, schedule: Q01DX010 (ip), vehicle: saline 113 % of control | dose: 2.0 mg/kg/injection, schedule: Q01DX010 (ip), vehicle: saline 118 % of control

CC(C)(C)c1ccc(OS(=O)(=O)c2ccccc2[N+](=O)[O-])cc1
inactive: dose: 100.0 mg/kg/injection, schedule: Q01DX001 (ip), vehicle: saline with Tween-80 104 % of control | dose: 200.0 mg/kg/injection, schedule: Q01DX001 (ip), vehicle: saline with Tween-80 100 % of control | dose: 400.0 mg/kg/injection, schedule: Q01DX001 (ip), vehicle: saline with Tween-80 113 % of control

O=C(NO)c1ccc(O)cc1
inactive: [15] 118 % of control | dose: 132.0 mg/kg/injection, schedule: Q04DX003 (ip), vehicle: saline sonified 100 % of control | [16] 100 % of control

C/C(=N/N(C)C)c1ccc([N+](=O)[O-])cc1
inactive: dose: 6.25 mg/kg/injection, schedule: Q01DX009 (ip), vehicle: saline 87 % of control | dose: 12.5 mg/kg/injection, schedule: Q01DX009 (ip), vehicle: saline 91 % of control | [4] 100 % of control | dose: 50.0 mg/kg/injection, schedule: Q01DX009 (ip), vehicle: Klucel (hydroxypropylcellulose) (HPC) 109 % of control
